# The source made the active and inactive calls. No cut-off for these calls is given here.
# Experiments:
# MCF7 [1] = assay: Cytotoxicity against human MCF7 cells assessed as reduction in cell viability at 12 uM incubated for 24 hrs by MTT assay; type: functional, cell-based
# MCF7 [2] = assay: Cytotoxicity against human MCF7 cells assessed as reduction in cell viability at 50 uM incubated for 24 hrs by MTT assay; type: functional, cell-based
# MCF7 [3] = assay: Cytotoxicity against human MCF7 cells assessed as reduction in cell viability incubated for 2 to 24 hrs by MTT assay; type: functional, cell-based; conditions: dose 6-12 µM, time 2-24 hrs
# MDA-MB-231 [4] = assay: Activation of AMPK in human MDA-MB-231 cells assessed as reduction in p70S6K phosphorylation at Thr421/Ser424 residue at 6 to 12 uM incubated for 2 hrs by western blot analysis; type: cell-based; conditions: filed as activator, dose 6-12 µM
# MDA-MB-231 [5] = assay: Cytotoxicity against human MDA-MB-231 cells assessed as reduction in cell viability incubated for 24 hrs by MTT assay; type: functional, cell-based; conditions: MDA-MB-231, 24 h
# MDA-MB-231 [6] = assay: Increase in ROS production in human MDA-MB-231 cells assessed as increase in ROS-positive cells at 6 to 12 uM incubated for 2 to 24 hrs by DCFDA/7-AAD staining based flow cytometry; type: functional, cell-based; conditions: dose 6-12 µM, time 2-24 hrs
# MCF7 [7] = assay: Increase in ROS production in human MCF7 cells assessed as increase in ROS-positive cells at 6 to 12 uM incubated for 4 hrs by DCFDA/7-AAD staining based flow cytometry; type: functional, cell-based; conditions: dose 6-12 µM
# MDA-MB-231 [8] = assay: Activation of AMPK in human MDA-MB-231 cells assessed as increase in ACC phosphorylation at Ser79 residue at 12 uM incubated for 2 hrs by western blot analysis; type: cell-based; conditions: filed as activator
# MCF-10A [9] = assay: Cytotoxicity against human MCF-10A cells assessed as reduction in cell viability incubated for 24 hrs by MTT assay; type: toxicity, cell-based
# MCF7 [10] = assay: Induction of cell death in human MCF7 cells assessed as proportion of live cells at 12 uM incubated for 12 hrs by AnnexinV/7-AAD staining based flow cytometry; type: functional
# MCF7 [11] = assay: Induction of cell death in human MCF7 cells assessed as reduction in number of live cells at 12 uM incubated for 4 hrs by AnnexinV/7-AAD staining based flow cytometry; type: functional
# MCF-10A [12] = assay: Induction of apoptotic cell death in human MCF-10A cells assessed as increase in AnnexinV-positive cells at 12 uM incubated for 2 hrs by AnnexinV/7-AAD staining based flow cytometry; type: toxicity
# MCF7 [13] = assay: Induction of cell death in human MCF7 cells assessed as proportion of live cells at 6 uM incubated for 12 hrs by AnnexinV/7-AAD staining based flow cytometry; type: functional
# MDA-MB-231 [14] = assay: Activation of AMPK in human MDA-MB-231 cells assessed as reduction in S6 phosphorylation at Ser235/236 residue at 6 to 12 uM incubated for 2 hrs by western blot analysis; type: cell-based; conditions: filed as activator, dose 6-12 µM
# MCF7 [15] = assay: Induction of apoptotic cell death in human MCF7 cells at 6 to 12 uM by AnnexinV/7-AAD staining based flow cytometry; type: functional; conditions: dose 6-12 µM, time 12-24 hrs, TDE = time-dependent effect
# MCF7 [16] = assay: Activation of AMPK in human MCF7 cells assessed as reduction in S6 phosphorylation at Ser235/236 residue at 6 to 12 uM incubated for 2 hrs by western blot analysis; type: cell-based; conditions: filed as activator, dose 6-12 µM
# MCF7 [17] = assay: Cytotoxicity against human MCF7 cells assessed as reduction in cell viability at 6 uM incubated for 24 hrs by MTT assay; type: functional, cell-based
# MCF7 [18] = assay: Increase in ROS production in human MCF7 cells assessed as increase in ROS-positive cells at 6 to 12 uM incubated for 2 hrs by DCFDA/7-AAD staining based flow cytometry; type: functional, cell-based; conditions: dose 6-12 µM
# MDA-MB-231 [19] = assay: Induction of apoptotic cell death in human MDA-MB-231 cells assessed as increase in AnnexinV-positive cells at 3 to 12 uM incubated for 2 hrs by AnnexinV/7-AAD staining based flow cytometry; type: functional; conditions: dose 3-12 µM
# MDA-MB-231 [20] = assay: Activation of AMPK in human MDA-MB-231 cells assessed as increase in AMPK phosphorylation at Thr172 residue at 12 uM incubated for 2 hrs by western blot analysis; type: cell-based; conditions: filed as activator
# MCF7 [21] = assay: Induction of apoptotic cell death in human MCF7 cells incubated for 12 to 24 hrs by AnnexinV/7-AAD staining based flow cytometry; type: functional; conditions: dose 6-12 µM, time 12-24 hrs
# MCF7 [22] = assay: Activation of AMPK in human MCF7 cells assessed as increase in ACC phosphorylation at Ser79 residue at 12 uM incubated for 2 hrs by western blot analysis; type: cell-based; conditions: filed as activator
# MCF7 [23] = assay: Activation of AMPK in human MCF7 cells assessed as increase in AMPK phosphorylation at Thr172 residue at 12 uM incubated for 2 hrs by western blot analysis; type: cell-based; conditions: filed as activator
# MCF7 [24] = assay: Activation of AMPK in human MCF7 cells assessed as reduction in mTOR phosphorylation at Ser2448 residue at 6 to 12 uM incubated for 2 hrs by western blot analysis; type: cell-based; conditions: filed as activator, dose 6-12 µM
# MCF7 [25] = assay: Cytotoxicity against human MCF7 cells assessed as reduction in cell viability incubated for 24 hrs by MTT assay; type: functional, cell-based; conditions: MCF7, 24 h
# MCF7 [26] = assay: Cytotoxicity against human MCF7 cells assessed as reduction in cell viability at 6 to 12 uM by MTT assay; type: functional, cell-based; conditions: dose 6-12 µM, time 2-24 hrs, TDE = time-dependent effect
# MCF7 [27] = assay: Induction of apoptotic cell death in human MCF7 cells assessed as increase in AnnexinV-positive cells at 3 uM incubated for 2 hrs by AnnexinV/7-AAD staining based flow cytometry; type: functional
# MDA-MB-231 [28] = assay: Induction of apoptotic cell death in human MDA-MB-231 cells assessed as increase in AnnexinV-positive cells at 1 uM incubated for 2 hrs by AnnexinV/7-AAD staining based flow cytometry; type: functional
# MCF-10A [29] = assay: Induction of apoptotic cell death in human MCF-10A cells assessed as increase in AnnexinV-positive cells at 1 uM incubated for 2 hrs by AnnexinV/7-AAD staining based flow cytometry; type: toxicity
# MCF7 [30] = assay: Induction of apoptotic cell death in human MCF7 cells assessed as increase in AnnexinV-positive cells at 1 uM incubated for 2 hrs by AnnexinV/7-AAD staining based flow cytometry; type: functional
smiles,measurement,setting,value
CC(C)=CCC1=C(OCc2cn(C(C3=C(C)C(=O)c4ccccc4C3=O)c3ccccc3)nn2)C(=O)c2ccccc2C1=O (stereo unspecified),Activity,MCF7 [1],Active
CC(C)=CC1=C(OCc2cn(C(C3=C(C)C(=O)c4ccccc4C3=O)c3ccc(Br)cc3)nn2)C(=O)c2ccccc2C1=O (stereo unspecified),Activity,MCF7 [2],inactive
CC(C)=CCC1=C(OCc2cn(C(C3=C(C)C(=O)c4ccccc4C3=O)c3ccc(F)cc3)nn2)C(=O)c2ccccc2C1=O (stereo unspecified),Activity,MCF7 [2],inactive
CC1=C(C(c2ccc(F)cc2)n2cc(CNC3=CC(=O)c4ccccc4C3=O)nn2)C(=O)c2ccccc2C1=O (stereo unspecified),Activity,MCF7 [2],inactive
CC(C)=CC1=C(OCc2cn(CC3=C(C)C(=O)c4ccccc4C3=O)nn2)C(=O)c2ccccc2C1=O,Activity,MCF7 [3],Dose-Dependent Effect
same,Activity,MDA-MB-231 [4],Active
same,IC50,MDA-MB-231 [5],11.1 µM
same,Activity,MDA-MB-231 [6],inactive
same,Activity,MCF7 [7],inactive
same,Activity,MDA-MB-231 [8],Active
same,Activity,MCF-10A [9],Non-Toxic
same,Activity,MCF7 [10],<90%
same,Activity,MCF7 [11],Active
same,Activity,MCF-10A [12],Non-Toxic
same,Activity,MCF7 [13],<70%
same,Activity,MDA-MB-231 [14],Active
same,Activity,MCF7 [15],Tde
same,Activity,MCF7 [16],Active
same,Activity,MCF7 [17],Active
same,Activity,MCF7 [18],Active
same,Activity,MDA-MB-231 [19],inactive
same,Activity,MDA-MB-231 [20],Active
same,Activity,MCF7 [1],Active
same,Activity,MCF7 [21],Dose-Dependent Effect
same,Activity,MCF7 [22],Active
same,Activity,MCF7 [23],Active
same,Activity,MCF7 [24],Active
same,IC50,MCF7 [25],4.4 µM
same,Activity,MCF7 [26],Tde
same,Activity,MCF7 [27],Active
CC(C)=CC1=C(OCc2cn(C(C3=C(C)C(=O)c4ccccc4C3=O)c3ccccc3)nn2)C(=O)c2ccccc2C1=O (stereo unspecified),Activity,MCF7 [1],Active
CC1=C(C(c2ccc(Cl)cc2)n2cc(CNC3=CC(=O)c4ccccc4C3=O)nn2)C(=O)c2ccccc2C1=O (stereo unspecified),Activity,MCF7 [2],inactive
CC(C)=CC1=C(OCc2cn(C(C)C3=C(C)C(=O)c4ccccc4C3=O)nn2)C(=O)c2ccccc2C1=O (stereo unspecified),Activity,MCF7 [3],Dose-Dependent Effect
same,Activity,MDA-MB-231 [4],Active
same,IC50,MDA-MB-231 [5],9.2 µM
same,Activity,MDA-MB-231 [6],inactive
same,Activity,MDA-MB-231 [8],Active
same,Activity,MCF-10A [9],Non-Toxic
same,Activity,MCF7 [10],<95%
same,Activity,MCF7 [11],Active
same,Activity,MCF-10A [12],Toxic
same,Activity,MCF7 [13],<75%
same,Activity,MDA-MB-231 [14],Active
same,Activity,MCF7 [15],Tde
same,Activity,MCF7 [16],Active
same,Activity,MCF7 [17],Active
same,Activity,MCF7 [18],Active
same,Activity,MDA-MB-231 [19],inactive
same,Activity,MDA-MB-231 [20],Active
same,Activity,MCF7 [1],Active
same,Activity,MCF7 [21],Dose-Dependent Effect
same,Activity,MCF7 [22],Active
same,Activity,MCF7 [23],Active
same,Activity,MCF7 [24],Active
same,IC50,MCF7 [25],4.3 µM
same,Activity,MCF7 [26],Tde
CC(C)(C)c1ccc(-n2cc(CNC3=CC(=O)c4ccccc4C3=O)nn2)cc1,IC50,MCF7 [25],21.2 µM
CC1=C(C(c2ccccc2)n2cc(CNC3=CC(=O)c4ccccc4C3=O)nn2)C(=O)c2ccccc2C1=O (stereo unspecified),Activity,MCF7 [2],inactive
CC(C)=CCC1=C(OCc2cn(C(C3=C(C)C(=O)c4ccccc4C3=O)c3ccc(Cl)cc3)nn2)C(=O)c2ccccc2C1=O (stereo unspecified),Activity,MCF7 [2],inactive
CC(C)=CCC1=C(OCc2cn(C(C3=C(C)C(=O)c4ccccc4C3=O)c3ccc(Br)cc3)nn2)C(=O)c2ccccc2C1=O (stereo unspecified),Activity,MCF7 [2],inactive
CC1=C(C(c2ccc(Br)cc2)n2cc(CNC3=CC(=O)c4ccccc4C3=O)nn2)C(=O)c2ccccc2C1=O (stereo unspecified),Activity,MCF7 [2],inactive
CC1=C(Cn2cc(CNC3=CC(=O)c4ccccc4C3=O)nn2)C(=O)c2ccccc2C1=O,Activity,MCF7 [1],Active
CC(C)=CCC1=C(OCc2cn(CC3=C(C)C(=O)c4ccccc4C3=O)nn2)C(=O)c2ccccc2C1=O,Activity,MCF7 [2],inactive
COc1cccc2c1C(=O)c1c(O)c3c(c(O)c1C2=O)C[C@@](O)(C(=O)CO)C[C@@H]3O[C@H]1C[C@H](N)[C@H](O)[C@H](C)O1 [DOXORUBICIN],Activity,MDA-MB-231 [28],Active
same,Activity,MCF-10A [29],Toxic
same,Activity,MCF7 [30],inactive
CCc1ccc(-n2cc(CCNC3=C(C)C(=O)c4ccccc4C3=O)nn2)cc1,IC50,MCF7 [25],8.73 µM
CC(C)=CCC1=C(OCc2cn(C(C)C3=C(C)C(=O)c4ccccc4C3=O)nn2)C(=O)c2ccccc2C1=O (stereo unspecified),Activity,MCF7 [2],inactive
O=C1C=C(NCc2cn(-c3ccc(C(F)(F)F)cc3)nn2)C(=O)c2ccccc21,IC50,MCF7 [25],10.4 µM
CC1=C(C(C)n2cc(CNC3=CC(=O)c4ccccc4C3=O)nn2)C(=O)c2ccccc2C1=O (stereo unspecified),Activity,MCF7 [2],inactive
CC(C)=CC1=C(OCc2cn(C(C3=C(C)C(=O)c4ccccc4C3=O)c3ccc(Cl)cc3)nn2)C(=O)c2ccccc2C1=O (stereo unspecified),Activity,MCF7 [2],inactive
